Experimental data taken from patent publication US20230339886A1 (University of Florida Research Foundation, Incorporated, priority 2020, published 2023).

Target: T1, REV-ERBα LBD (human; residues 281-614 Δ324-422) (Homo sapiens, UniProt P20393, DEL324-422)
T1 construct: 6×Histag-REV-ERBα LBD (human; residues 281-614 Δ324-422); made in house; host or cells: Escherichia coli
Test: TR-FRET corepressor interaction assay (REV-ERBα LBD, FITC-SMRT peptide)
Type: biochemical
Settings: Table 2, read-out: REVERBα agonism (EC50 class, FRET assay)
Protocol: TR-FRET corepressor interaction assay. The time-resolved fluorescence resonance energy transfer (TR-FRET) assay was performed in black low-volume 384-well plates (Greiner). […] Ligand stocks were prepared via serial dilution in DMSO, added to wells in triplicate, and plates were incubated at 4° C. for 2 h and read using a BioTek Synergy Neo multimode plate reader. The Tb donor was excited at 340 nm; its fluorescence emission was monitored at 495 nm, and the acceptor FITC emission was measured at 520 nm; and the TR-FRET ratio was calculated as the signal at 520 nm divided by the signal at 495 nm. Data were plotted using GraphPad Prism as TR-FRET ratio vs. ligand concentration and fit to sigmoidal dose response curve equation.

T1 sequence (P20393 with tags, fused parts or gaps DEL324-422): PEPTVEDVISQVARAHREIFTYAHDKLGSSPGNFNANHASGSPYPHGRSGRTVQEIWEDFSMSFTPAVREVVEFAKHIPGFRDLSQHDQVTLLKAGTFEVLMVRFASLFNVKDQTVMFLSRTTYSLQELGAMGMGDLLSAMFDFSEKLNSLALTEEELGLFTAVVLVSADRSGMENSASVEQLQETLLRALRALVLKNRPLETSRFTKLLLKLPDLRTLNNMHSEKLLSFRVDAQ
T1 sequence (Q9Y618 2335-2356 partner limits assumed): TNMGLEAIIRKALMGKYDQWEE

SMILES	EC50 [nM]
CC(C)Cn1cc(CC(=O)NS(=O)(=O)N(C)C)c2ccc(-c3ccncc3)cc21 [Compound 234]	> 3000
CC(C)Cn1cc(CCCNS(=O)(=O)N(C)C)c2ccc(-c3ccncc3)cc21 [Compound 235]	> 3000
Cc1c(CCNS(=O)(=O)N(C)C)c2ccc(-c3ccncc3)cc2n1CC(C)C [Compound 236]	500 to 3000
CN(C)S(=O)(=O)NCCc1cn(CCOC(C)(C)C)c2cc(-c3ccncc3)ccc12 [Compound 237]	500 to 3000
CC(C)Cn1cc(CNS(=O)(=O)N(C)C)c2ccc(-c3ccncc3)cc21 [Compound 238]	500 to 3000
CC(C)Cn1cc(CNS(=O)(=O)N(C)C)c2ccc(-c3ccncc3)cc21 [Compound 239]	< 500
CC(C)Cn1cc(CNS(=O)(=O)C2CCCC2)c2ccc(-c3ccncc3)cc21 [Compound 243]	< 500
CC(C)Cn1cc(CNS(=O)(=O)N2CCCC2)c2ccc(-c3ccncc3)cc21 [Compound 244]	< 500
CC(C)Cn1cc(CNS(=O)(=O)CC(C)C)c2ccc(-c3ccncc3)cc21 [Compound 245]	< 500
CC(C)Cn1cc(CN(C)S(=O)(=O)N(C)C)c2ccc(-c3ccncc3)cc21 [Compound 246]	500 to 3000
CC(C)Cn1cc(CCS(=O)(=O)C(C)C)c2ccc(Br)cc21 [Compound 247]	500 to 3000
CC(C)Cn1cc(CCS(=O)(=O)C(C)C)c2ccc(-c3ccncc3)cc21 [Compound 248]	< 500
CC(C)Cn1cc(CCS(=O)(=O)C(C)C)c2ccc(C3CCCCC3)cc21 [Compound 250]	< 500
CC(C)Cn1cc(C(C)CNS(=O)(=O)C(C)C)c2ccc(-c3ccncc3)cc21 (stereo not drawn) [Compound 251]	< 500
CC(C)Cn1cc(C(C)CNS(=O)(=O)C2CC2)c2ccc(-c3ccncc3)cc21 (stereo not drawn) [Compound 253]	500 to 3000
CC(C)Cn1cc(C(C)CNS(=O)(=O)C(C)C)c2ccc(-c3ccccc3)cc21 (stereo not drawn) [Compound 254]	> 3000
CC(C)Cn1cc(C(C)CNS(=O)(=O)N(C)C)c2ccc(-c3ccccc3)cc21 (stereo not drawn) [Compound 255]	500 to 3000
CC(C)Cn1cc(C(C)CNS(=O)(=O)C2CC2)c2ccc(-c3ccccc3)cc21 (stereo not drawn) [Compound 256]	> 3000
CC(C)Cn1cc([C@H]2C[C@H]2NS(=O)(=O)C(C)C)c2ccc(Br)cc21 [Compound 257]	500 to 3000

SMILES	EC50 [nM]
CC(C)Cn1cc([C@H]2C[C@H]2NS(=O)(=O)C(C)C)c2ccc(-c3ccncc3)cc21 [Compound 258]	< 500
CC(C)Cn1cc([C@H]2C[C@H]2NS(=O)(=O)C(C)C)c2ccc(-c3ccccc3)cc21 [Compound 259]	> 3000
CC(C)Cn1cc(CCNS(=O)(=O)C(C)C)c2cc(F)c(-c3ccccc3)cc21 [Compound 261]	< 500
CC(C)Cn1cc(CNS(=O)(=O)C(C)C)c2cc(F)c(-c3ccccc3)cc21 [Compound 266]	< 500
CC(C)Cn1cc(CNS(=O)(=O)C(C)C)c2cc(F)c(-c3ccccc3Cl)cc21 [Compound 267]	< 500
CC(C)Cn1cc(CNS(=O)(=O)C(C)C)c2cc(F)c(-c3ccncc3Cl)cc21 [Compound 268]	< 500
CC(C)Cn1cc(CNS(=O)(=O)C(C)C)c2cc(F)c(-c3ccccc3C(F)(F)F)cc21 [Compound 269]	< 500
CC(C)S(=O)(=O)NCCc1cn(CCC(C)(C)C)c2cc(-c3ccncc3)ccc12 [Compound 270]	< 500
CC(C)S(=O)(=O)NCCc1cn(CC(C(F)(F)F)C(F)(F)F)c2cc(-c3ccncc3)ccc12 [Compound 271]	500 to 3000
CC(C)S(=O)(=O)NCCc1cn(CC2CCCC2)c2cc(-c3ccncc3)ccc12 [Compound 272]	< 500
CC(C)Cn1cc(CC(NS(=O)(=O)C(C)C)C(F)(F)F)c2ccc(-c3ccncc3)cc21 (stereo not drawn) [Compound 273]	> 3000
CC(C)Cn1cc(CC(N(C)S(=O)(=O)C(C)C)C(F)(F)F)c2ccc(-c3ccncc3)cc21 (stereo not drawn) [Compound 274]	> 3000
CC(C)Cn1cc(CC(C)NS(=O)(=O)C(C)C)c2ccc(-c3ccncc3)cc21 (stereo not drawn) [Compound 275]	500 to 3000
CC(C)Cn1cc(CC(C)N(C)S(=O)(=O)C(C)C)c2ccc(-c3ccncc3)cc21 (stereo not drawn) [Compound 276]	< 500
CC(C)Cn1cc(CCN(C(C)C)S(=O)(=O)C(C)C)c2ccc(-c3ccncc3)cc21 [Compound 277]	< 500
O=S(=O)(NCc1cn(CC2CCCC2)c2cc(-c3ccccc3C(F)(F)F)c(F)cc12)C1CC1 [Compound 280]	< 500
O=S(=O)(NCCc1cn(CC2CCCC2)c2cc(-c3ccncc3Cl)ccc12)C1CC1 [Compound 281]	< 500
O=S(=O)(NCc1cn(CC(C(F)(F)F)C(F)(F)F)c2cc(-c3ccncc3Cl)c(F)cc12)C1CC1 [Compound 284]	500 to 3000
CC(C)(C)C(=O)n1cc(CNS(=O)(=O)C(F)(F)F)c2cc(F)c(-c3ccncc3Cl)cc21 [Compound 285]	> 3000

SMILES	EC50 [nM]
CC(C)(C)Cn1cc(CCNS(=O)(=O)C2CC2)c2cc(F)c(-c3ccccc3C(F)(F)F)cc21 [Compound 287]	< 500
CC(C)(C)Cn1cc(CCNS(=O)(=O)C2CC2)c2cc(F)c(-c3ccncc3Cl)cc21 [Compound 288]	< 500
CC(C)S(=O)(=O)NCCc1cn(CC(C)(C)C)c2cc(-c3ccccc3C(F)(F)F)c(F)cc12 [Compound 289]	< 500
CC(C)S(=O)(=O)NCCc1cn(CC(C)(C)C)c2cc(-c3ccncc3Cl)c(F)cc12 [Compound 290]	< 500
CC(C)Cn1cc(C(C)N[S+]([O-])C(C)(C)C)c2ccc(-c3ccccc3C(F)(F)F)cc21 (stereo not drawn) [Compound 291]	> 3000
Cc1c(CCNS(=O)(=O)N(C)C)c2ccc(-c3ccncc3)cc2n1CC(C)C [Example 41, dimethyl({2-[2-methyl-1-(2-methylpropyl)-6-(pyridin-4-yl)-1H-indol-3-yl]ethyl}sulfamoyl)amine]	> 3000
CC(C)Cn1cc(CCNS(=O)(=O)N(C)C)c2ccc(-c3ccc(F)cc3)cc21 [Example 45, N-{2-[6-(4-fluorophenyl)-1-(2-methylpropyl)-1H-indol-3-yl]ethyl}-N,N-dimethylsulfuric diamide]	500 to 3000
Cc1ccccc1-c1ccc2c(CCNS(=O)(=O)N(C)C)cn(CC(C)C)c2c1 [Example 46, N-{2-[6-(2-methylphenyl)-1-(2-methylpropyl)-1H-indol-3-yl]ethyl}-N,N-dimethylsulfuric diamide]	< 500
Cc1ccc(-c2ccc3c(CCNS(=O)(=O)N(C)C)cn(CC(C)C)c3c2)cc1 [Example 48, N-{2-[6-(4-methylphenyl)-1-(2-methylpropyl)-1H-indol-3-yl]ethyl}-N,N-dimethylsulfuric diamide]	500 to 3000
CC(C)Cn1cc(CCNS(=O)(=O)N(C)C)c2ccc(-c3cccc([N+](=O)[O-])c3)cc21 [Example 49, N-{2-[6-(3-nitrophenyl)-1-(2-methylpropyl)-1H-indol-3-yl]ethyl}-N,N-dimethylsulfuric diamide]	< 500
CC(C)Cn1cc(CCNS(=O)(=O)N(C)C)c2ccc(-c3cc(F)cc(F)c3)cc21 [Example 54, N-{2-[6-(3,5-difluorophenyl)-1-(2-methylpropyl)-1H-indol-3-yl]ethyl}-N,N-dimethyl-sulfuric diamide]	500 to 3000
CC(C)Cn1cc(CCNS(=O)(=O)N(C)C)c2ccc(-c3cccc(-c4ccccc4)c3)cc21 [Example 55, N-{2-[6-([1,1′-biphenyl]-3-yl)-1-(2-methylpropyl)-1H-indol-3-yl]ethyl}-N,N-dimethyl-sulfuric diamide]	500 to 3000
CC(C)Cn1cc(CCNS(=O)(=O)N(C)C)c2ccc(-c3ccccc3F)cc21 [Example 56, N-{2-[6-(2-fluorophenyl)-1-(2-methylpropyl)-1H-indol-3-yl]ethyl}-N,N-dimethylsulfuric diamide]	500 to 3000
CC(C)Cn1cc(CCNS(=O)(=O)N(C)C)c2ccc(-c3cccc(C#N)c3)cc21 [Example 59, N-{2-[6-(3-cyanophenyl)-1-(2-methylpropyl)-1H-indol-3-yl]ethyl}-N,N-dimethylsulfuric diamide]	< 500
CC(C)Cn1cc(CCNS(=O)(=O)N(C)C)c2ccc(-c3cccc(S(C)(=O)=O)c3)cc21 [Example 60, N-{2-[6-(3-methylsulfonylphenyl)-1-(2-methylpropyl)-1H-indol-3-yl]ethyl}-N,N-dimethylsulfuric diamide]	500 to 3000
CC(C)Cn1cc(C2CCCN(S(=O)(=O)N(C)C)C2)c2ccc(-c3ccccc3)cc21 (stereo not drawn) [Example 61, 3-(1-isobutyl-6-phenyl-1H-indol-3-yl)-N,N-dimethylpiperidine-1-sulfonamide]	500 to 3000
CC(C)Cn1cc(-c2cnn(S(=O)(=O)C(C)C)c2)c2ccc(-c3ccccc3)cc21 [Example 63, 1-isobutyl-3-(1-(isopropylsulfonyl)-1H-pyrazol-4-yl)-6-phenyl-1H-indole]	> 3000
CNS(=O)(=O)c1ccccc1-c1ccc2c(CCNS(=O)(=O)N(C)C)cn(CC(C)C)c2c1 [Example 72, N′-{2-[6-(2-N′-methylsulfonamidophenyl)-1-(2-methylpropyl)-1H-indol-3-yl]ethyl}-N,N-dimethylsulfuric diamide]	500 to 3000
COC(=O)c1ccccc1-c1ccc2c(CCNS(=O)(=O)N(C)C)cn(CC(C)C)c2c1 [Example 73, N′-{2-[6-(2-methyl carbonatephenyl)-1-(2-methylpropyl)-1H-indol-3-yl]ethyl}-N,N-dimethyl sulfuric diamide]	> 3000
